Calls of active or inactive are those of the source. The rule behind the calls is not given here.
How the values were obtained:
Histamine H3 receptor [1] = molecular target: T1, Histamine H3 receptor (Homo sapiens, UniProt Q9Y5N1); assay: Displacement of [3H]N-alpha-methylhistamine from full length human H3 receptor expressed in HEK293 cell membranes after 90 mins
Mus musculus [2] = assay: Anticonvulsant activity in ip dosed albino CF-1 mouse assessed as protection against subcutaneous pentylenetetrazole-induced seizures measured after 1 hr; format: functional; conditions: CF-1, 1 h
Mus musculus [3] = assay: Anticonvulsant activity in albino CF-1 mouse assessed as protection against 44 mA current-induced seizure at 50 mg/kg, ip after 4 hrs by 6 Hz psychomotor test; format: functional, organism-based
Mus musculus [4] = assay: Neurotoxicity in albino CF-1 mouse assessed as increase in subcutaneous pentylenetetrazole-induced continuous seizures at 50 mg/kg, ip measured after 0.5 hrs; format: toxicity, organism-based; conditions: in vivo
Rattus norvegicus [5] = assay: Anticonvulsant activity in Sprague-Dawley rat assessed as protection against maximal electroshock-induced seizures at 65 mg/kg, po after 0.25 hrs; format: functional, organism-based
[6] = Therapeutic index, ratio of ip dosed albino CF-1 mouse TD50 to ip dosed albino CF-1 mouse ED50 for 32 mA current-induced 6 Hz psychomotor test; format: toxicity, organism-based; conditions: in vivo, read-out: TI
Mus musculus [7] = assay: Neurotoxicity in albino CF-1 mouse at 50 mg/kg, ip after 1 hr by rotarod test; format: toxicity, organism-based; conditions: in vivo
Mus musculus [8] = assay: Neurotoxicity in albino CF-1 mouse at 50 mg/kg after 1 hr by rotarod test; format: toxicity, organism-based; conditions: in vivo
Histamine H3 receptor [9] = molecular target: T1, Histamine H3 receptor; assay: Antagonist activity at human H3 receptor expressed in HEK293 cells assessed as inhibition of RAMH-induced reduction of forskolin-stimulated cAMP accumulation after 30 mins by Ulight-based TR-FRET assay; format: functional, cell-based
[10] = molecular target: Histamine H1 receptor (Homo sapiens) (UniProt P35367); assay: Displacement of [3H]-pyrilamine from human histamine H1 receptor expressed in CHO cell membranes at 1 uM relative to chlorpheniramine
Mus musculus [11] = assay: Neurotoxicity in albino CF-1 mouse at 50 mg/kg, ip after 0.5 hrs by rotarod test; format: toxicity, organism-based; conditions: in vivo
Mus musculus [12] = assay: Effect on spontaneous locomotor activity in ip dosed albino Swiss CD1 mouse assessed as inhibition of number of light beam crossings treated for 30 mins measured for next 30 mins in 10 min intervals; format: organism-based; conditions: in vivo, 0.5 h
[13] = Neurotoxicity in ip dosed albino CF-1 mouse after 0.25 hrs by rotarod test; format: toxicity, organism-based; conditions: in vivo
[14] = molecular target: D(1A) dopamine receptor (Homo sapiens) (UniProt P21728); assay: Displacement of [3H]-SCH23390 from human dopamine D1 receptor expressed in HEK293 cell membranes at 1 uM relative to fluphenazin
Mus musculus [15] = assay: Anticonvulsant activity in albino CF-1 mouse assessed as protection against subcutaneous pentylenetetrazole-induced seizures at 50 mg/kg, ip measured after 4 hrs; format: functional, organism-based
Mus musculus [16] = assay: Neurotoxicity in albino CF-1 mouse at 50 mg/kg after 0.25 hrs by rotarod test; format: toxicity, organism-based; conditions: in vivo
Mus musculus [17] = assay: Analgesic activity in ip dosed albino Swiss CD1 mouse assessed reduction in formalin-induced inflammatory pain by measuring reduction in time spent in licking pretreated prior to formalin injection measured at 15 to 30 mins post formalin injection; format: functional
Rattus norvegicus [18] = assay: Anticonvulsant activity in Sprague-Dawley rat assessed as protection against maximal electroshock-induced seizures at 30 mg/kg, ip after 0.25 hrs; format: functional, organism-based
Mus musculus [19] = assay: Anticonvulsant activity in ip dosed albino CF-1 mouse assessed as protection against 44 mA current-induced seizure after 0.25 hrs by 6 Hz psychomotor test; format: functional; conditions: CF-1, ip
Mus musculus [20] = assay: Anticonvulsant activity in albino CF-1 mouse assessed as protection against maximal electroshock-induced seizures at 50 mg/kg, ip after 1 hr; format: functional, organism-based
Mus musculus [21] = assay: Induction of sedative effect in albino Swiss CD-1 mouse at 15 mg/kg, ip; format: organism-based; conditions: in vivo
Salmonella typhimurium [22] = assay: Mutagenicity in Salmonella typhimurium TA100 assessed as increase in number of revertants at 10 uM after 90 mins by Ames test; format: toxicity, organism-based; conditions: salmonella enterica subsp. enterica serovar typhimurium, 1.5 h
Mus musculus [23] = assay: Neurotoxicity in albino CF-1 mouse assessed as increase in subcutaneous pentylenetetrazole-induced continuous seizures at 50 mg/kg, ip measured after 2 hrs; format: toxicity, organism-based; conditions: in vivo
Mus musculus [24] = assay: Analgesic activity in ip dosed albino Swiss CD1 mouse assessed reduction in formalin-induced inflammatory pain by measuring reduction in time spent in licking treated prior to formalin injection measured at 0 to 5 mins post formalin injection; format: functional
[25] = molecular target: 5-hydroxytryptamine receptor 6 (Homo sapiens, UniProt P50406); assay: Displacement of [3H]-LSD from human 5-HT6 receptor expressed in HEK293 cell membranes after 1 hr
HepG2 = assay: Cytotoxicity against human HepG2 cells assessed as reduction in cell viability after 72 hrs by MTS assay; format: cell-based; conditions: HepG2, 72 h
[26] = molecular target: Muscarinic acetylcholine receptor M3 (Cavia porcellus) (UniProt Q8VH26); assay: Agonist activity at muscarinic M3 receptor in guinea-pig ileum assessed as induction of contractions at 1 to 3 uM after 15 mins; format: functional
Rattus norvegicus [27] = assay: Anticonvulsant activity in ip Sprague-Dawley rat assessed as protection against subcutaneous pentylenetetrazole-induced seizures measured after 0.25 hrs; format: functional
[28] = molecular target: Histamine H1 receptor (Cavia porcellus) (UniProt P31389); assay: Agonist activity at histamine H1 receptor in guinea-pig ileum assessed as induction of contractions at 1 to 3 uM after 15 mins; format: functional
Mus musculus [29] = assay: Neurotoxicity in albino CF-1 mouse assessed as increase in subcutaneous pentylenetetrazole-induced continuous seizures at 50 mg/kg, ip measured after 0.25 hrs; format: toxicity, organism-based; conditions: in vivo
Salmonella typhimurium [30] = assay: Mutagenicity in Salmonella typhimurium TA100 assessed as increase in number of revertants at 1 uM after 90 mins by Ames test; format: toxicity, organism-based; conditions: salmonella enterica subsp. enterica serovar typhimurium, 1.5 h
Mus musculus [31] = assay: Anticonvulsant activity in ip dosed albino CF-1 mouse assessed as protection against 32 mA current-induced seizure after 1 hr by 6 Hz psychomotor test; format: functional; conditions: CF-1, ip
Mus musculus [32] = assay: Neurotoxicity in albino CF-1 mouse at 65 mg/kg after 0.25 hrs by rotarod test; format: toxicity, organism-based; conditions: in vivo
Mus musculus [33] = assay: Neurotoxicity in albino CF-1 mouse at 30 mg/kg, ip after 0.5 hrs by rotarod test; format: toxicity, organism-based; conditions: in vivo
[34] = Therapeutic index, ratio of ip dosed albino CF-1 mouse TD50 to ip dosed albino CF-1 mouse ED50 for 44 mA current-induced 6 Hz psychomotor test; format: toxicity, organism-based; conditions: in vivo, read-out: TI

T1 sequence (Q9Y5N1 whole entry): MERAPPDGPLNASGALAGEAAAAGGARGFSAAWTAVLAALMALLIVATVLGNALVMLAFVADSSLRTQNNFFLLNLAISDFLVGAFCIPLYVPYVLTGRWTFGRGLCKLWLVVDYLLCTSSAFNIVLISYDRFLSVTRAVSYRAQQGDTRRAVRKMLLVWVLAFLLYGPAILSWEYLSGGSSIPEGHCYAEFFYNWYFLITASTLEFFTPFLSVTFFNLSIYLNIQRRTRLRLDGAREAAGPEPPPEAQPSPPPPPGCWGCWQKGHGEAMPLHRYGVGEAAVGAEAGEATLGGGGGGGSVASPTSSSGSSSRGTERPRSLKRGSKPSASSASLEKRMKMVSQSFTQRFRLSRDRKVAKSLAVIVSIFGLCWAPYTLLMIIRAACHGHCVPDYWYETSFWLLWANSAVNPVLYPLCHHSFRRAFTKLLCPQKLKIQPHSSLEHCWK
Chain of Muscarinic acetylcholine receptor M3 (Cavia porcellus) (Q8VH26 1-587): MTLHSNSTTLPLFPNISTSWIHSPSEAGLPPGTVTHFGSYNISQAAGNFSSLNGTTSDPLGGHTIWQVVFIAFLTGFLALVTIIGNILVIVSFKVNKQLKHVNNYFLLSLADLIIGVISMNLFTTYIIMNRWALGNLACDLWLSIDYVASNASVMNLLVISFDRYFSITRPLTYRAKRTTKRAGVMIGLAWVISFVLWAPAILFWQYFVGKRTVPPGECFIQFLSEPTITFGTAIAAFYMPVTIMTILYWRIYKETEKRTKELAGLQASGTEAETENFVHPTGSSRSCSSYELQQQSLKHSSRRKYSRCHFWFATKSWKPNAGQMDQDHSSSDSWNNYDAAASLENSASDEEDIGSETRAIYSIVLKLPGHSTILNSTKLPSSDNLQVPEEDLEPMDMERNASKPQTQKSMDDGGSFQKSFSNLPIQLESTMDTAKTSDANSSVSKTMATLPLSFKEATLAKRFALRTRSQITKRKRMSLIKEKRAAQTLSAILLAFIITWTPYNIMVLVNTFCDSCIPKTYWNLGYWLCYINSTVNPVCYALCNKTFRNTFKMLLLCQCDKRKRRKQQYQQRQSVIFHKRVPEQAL
Chain of Histamine H1 receptor (Homo sapiens) (P35367 whole entry): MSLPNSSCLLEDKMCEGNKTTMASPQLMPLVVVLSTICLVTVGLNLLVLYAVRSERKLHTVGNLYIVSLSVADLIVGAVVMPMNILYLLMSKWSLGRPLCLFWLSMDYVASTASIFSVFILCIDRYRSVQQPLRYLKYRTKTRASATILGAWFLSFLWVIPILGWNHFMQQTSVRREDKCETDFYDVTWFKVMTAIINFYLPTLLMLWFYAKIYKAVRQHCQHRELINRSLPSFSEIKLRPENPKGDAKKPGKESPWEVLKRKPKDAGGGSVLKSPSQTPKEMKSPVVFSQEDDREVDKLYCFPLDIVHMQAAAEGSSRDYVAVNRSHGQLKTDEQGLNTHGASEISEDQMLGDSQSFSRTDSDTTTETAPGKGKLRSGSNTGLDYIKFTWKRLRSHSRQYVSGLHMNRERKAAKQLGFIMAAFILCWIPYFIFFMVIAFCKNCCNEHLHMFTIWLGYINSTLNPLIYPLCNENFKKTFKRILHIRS
Chain of D(1A) dopamine receptor (Homo sapiens) (P21728 whole entry): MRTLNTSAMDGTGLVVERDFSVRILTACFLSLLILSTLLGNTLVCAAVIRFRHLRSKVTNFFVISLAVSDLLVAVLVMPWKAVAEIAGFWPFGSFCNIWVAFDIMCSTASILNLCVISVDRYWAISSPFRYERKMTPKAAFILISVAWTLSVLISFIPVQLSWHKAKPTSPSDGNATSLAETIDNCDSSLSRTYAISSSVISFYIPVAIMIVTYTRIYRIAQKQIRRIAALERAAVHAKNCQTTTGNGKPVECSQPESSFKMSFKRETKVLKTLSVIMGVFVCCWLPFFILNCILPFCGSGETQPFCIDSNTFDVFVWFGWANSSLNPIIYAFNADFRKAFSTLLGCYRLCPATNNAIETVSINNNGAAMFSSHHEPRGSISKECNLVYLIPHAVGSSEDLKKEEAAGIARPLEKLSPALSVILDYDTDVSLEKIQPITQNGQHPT
Chain of 5-hydroxytryptamine receptor 6 (P50406 whole entry): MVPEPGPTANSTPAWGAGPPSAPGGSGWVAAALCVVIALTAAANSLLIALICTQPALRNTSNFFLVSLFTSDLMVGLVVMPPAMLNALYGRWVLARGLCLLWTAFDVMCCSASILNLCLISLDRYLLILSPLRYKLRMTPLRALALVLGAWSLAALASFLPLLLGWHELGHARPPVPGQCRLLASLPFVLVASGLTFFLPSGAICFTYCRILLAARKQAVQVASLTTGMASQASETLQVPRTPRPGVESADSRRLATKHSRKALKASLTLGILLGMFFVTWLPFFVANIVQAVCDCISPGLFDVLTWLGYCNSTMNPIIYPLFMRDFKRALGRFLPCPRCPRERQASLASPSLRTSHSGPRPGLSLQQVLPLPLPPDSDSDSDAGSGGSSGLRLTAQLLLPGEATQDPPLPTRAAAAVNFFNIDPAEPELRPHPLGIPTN
Chain of Histamine H1 receptor (Cavia porcellus) (P31389 whole entry): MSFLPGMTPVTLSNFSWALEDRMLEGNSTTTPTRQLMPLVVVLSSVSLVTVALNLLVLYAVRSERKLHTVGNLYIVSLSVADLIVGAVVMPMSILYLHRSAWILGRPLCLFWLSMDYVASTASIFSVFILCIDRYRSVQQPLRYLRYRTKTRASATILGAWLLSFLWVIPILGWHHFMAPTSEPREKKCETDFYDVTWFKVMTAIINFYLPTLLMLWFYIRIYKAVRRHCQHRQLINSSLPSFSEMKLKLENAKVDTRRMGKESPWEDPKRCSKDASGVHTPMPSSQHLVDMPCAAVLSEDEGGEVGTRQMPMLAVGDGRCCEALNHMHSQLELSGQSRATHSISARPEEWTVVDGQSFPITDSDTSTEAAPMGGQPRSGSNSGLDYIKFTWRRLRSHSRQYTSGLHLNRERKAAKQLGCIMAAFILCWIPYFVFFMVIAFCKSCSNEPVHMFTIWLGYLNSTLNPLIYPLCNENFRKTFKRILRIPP

In the case of c1ccc2c(OCCCCCN3CCCCC3)cccc2c1, the Ki (Histamine H3 receptor [1]) is reported as 53.9 nM, the ED50 (Mus musculus [2]) is reported as greater than 100 mg/kg and the Activity (Mus musculus [3]) is reported as “inactive”. For the same compound, the Activity (Mus musculus [4]) was “Non-Toxic”, the Activity (Rattus norvegicus [5]) was “inactive” and the selectivity ratio [6] was 2.9. For the same compound, the Activity (Mus musculus [7]) was “Non-Toxic”, the Activity (Mus musculus [8]) was “Non-Toxic” and the IC50 (Histamine H3 receptor [9]) was 165 nM. For the same compound, the inhibition (Histamine H3 receptor [9]) was “Dose-dependent effect”, the inhibition [10] was 17% and the Activity (Mus musculus [11]) was “Non-Toxic”. The ED50 (Mus musculus [12]) was 11.43 mg/kg, the TD50 at 0.25 h [13] was 94.8 mg/kg and the inhibition [14] was 6.7%. The Activity (Mus musculus [15]) was “inactive”, the Activity (Mus musculus [16]) was “Non-Toxic” and the ED50 (Mus musculus [17]) was 30 mg/kg. The Activity (Rattus norvegicus [18]) was “Active”, the ED50 (Mus musculus [19]) was 57.2 mg/kg and the Activity (Mus musculus [20]) was “Active”. For the same compound, the Activity (Mus musculus [21]) was “Toxic”, the Activity (Salmonella typhimurium [22]) was “Non-Toxic” and the Activity (Mus musculus [23]) was “Non-Toxic”. The ED50 (Mus musculus [24]) was 31.1 mg/kg, the Ki [25] was 2540 nM and the IC50 (HepG2) was greater than 50000 nM. The Activity [26] was “inactive”, the ED50 (Rattus norvegicus [27]) was greater than 60.6 mg/kg and the Activity [28] was “inactive”. For the same compound, the Activity (Mus musculus [29]) was “Non-Toxic”, the Activity (Salmonella typhimurium [30]) was “Non-Toxic” and the ED50 (Mus musculus [31]) was 33.1 mg/kg. The Activity (Mus musculus [32]) was “Non-Toxic”, the Activity (Mus musculus [33]) was “Non-Toxic” and the selectivity ratio [34] was 1.6.
